Measurements taken from patent US5973228A, “Coniferin beta-glucosidase cDNA for modifying lignin content in plants” (University of British Columbia, priority 1998, dated 1999).

What was measured:
[1] = target: T1, native coniferin beta-glucosidase (CBG) purified from pine xylem (Pinus contorta, UniProt Q9ZT64); test: β-glucosidase assay, substrate specificity of coniferin β-glucosidase purified from pine xylem; type: biochemical; details: substrate hydrolysis relative to coniferin; 100% activity represents 14pKat; 2 mM glucoside substrate, 0.2M MES pH 5.5, 30° C., 30 min
T1 construct: from tissue; host or cells: Pinus contorta xylem
T1 sequence (Q9ZT64 24-513): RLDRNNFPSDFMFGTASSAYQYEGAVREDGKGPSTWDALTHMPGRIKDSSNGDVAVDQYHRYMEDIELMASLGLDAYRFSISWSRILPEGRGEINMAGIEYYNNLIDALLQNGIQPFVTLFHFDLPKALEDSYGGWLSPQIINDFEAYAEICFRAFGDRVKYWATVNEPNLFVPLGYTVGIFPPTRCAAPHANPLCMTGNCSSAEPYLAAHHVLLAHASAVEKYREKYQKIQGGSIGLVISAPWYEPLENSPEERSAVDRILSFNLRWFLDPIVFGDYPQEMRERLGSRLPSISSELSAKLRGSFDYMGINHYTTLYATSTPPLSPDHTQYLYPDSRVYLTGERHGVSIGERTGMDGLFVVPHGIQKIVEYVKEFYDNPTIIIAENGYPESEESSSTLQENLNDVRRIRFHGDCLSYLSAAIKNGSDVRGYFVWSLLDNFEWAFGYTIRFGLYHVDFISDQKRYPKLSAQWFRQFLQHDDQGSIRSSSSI
Source text: Coniferin beta-glucosidase enzyme was purified from Pinus contorta xylem tissue as described by Dharmwardhana et al. (1995). In order to determine the N-terminal amino acid sequence of the purified enzymne, it was run on native PAGE gels, stained for activity on the synthetic coniferin substrate VRA-G and the staining band excised and subjected to SDS-PAGE. The protein was then transferred to an Immobilon membrane for N-terminal amino acid sequencing using an Applied Biosystems 470A gas phase sequencer (Edman degradation).
(§1) As noted above, the functional characteristic of the CBG enzyme is its ability to hydrolyze coniferin. This activity can be measured using the simple β-glucosidase assay described by Dharwardhana et al. (1995), conducted as follows: enzyme preparations (10-50 μl) and glucoside substrate (coniferin) (2 mM final concentration) in 0.2M MES, pH 5.5 buffer in a final volume of 150 μl are incubated at 30° C. for 30 min. The reaction is stopped by basification of the assay mixture with an equal volume of 0.5M CAPS buffer (Sigma Chemical Co., St. Louis, Mo., pH 10.5 and the activity measured by determining the absorbance of the released aglycone. The activity of the enzyme can be measured not only against coniferin, but also against related glucosides including 4-NPG, 2-NPG, MUG and the synthetic coniferin analog VRA-G. For quantitative calculations, the following analysis wavelengths and values (mM^-1 ×cm^-1) were used: coniferyl alcohol, 325 nm, ε=7.0; sinapyl alcohol, 315 nm, ε=11.2; 2-nitrophenol, 420 nm, ε=4.55, 4-nitrophenol, 400 nm, ε=19.3; 4-methyl umbelliferone, 360 nm, ε=18.25; VRA-G, 490 nm, ε=38.6; salicyl alcohol, 295 nm, ε=3.3.

[2] = target: T2, E. coli-expressed (recombinant) coniferin beta-glucosidase (CBG) (Pinus contorta, UniProt Q9ZT64); test: β-glucosidase assay, substrate specificity of E. coli-expressed CBG-cDNA; type: biochemical; details: substrate hydrolysis relative to coniferin; 100% activity represents 22pKat; 2 mM glucoside substrate, 0.2M MES pH 5.5, 30° C., 30 min
T2 construct: coding region for the mature protein (i.e. excluding the signal peptide) was amplified; Met-Ala-Ser (three non-CBG vector residues) (N); made in house; host or cells: E. coli BL21 (DE3), vector pET21a
T2 sequence (Q9ZT64 24-513): T1 sequence (Q9ZT64 24-513)
Source text: To express CBG protein in E. coli, the full- length coding region for the mature protein (i.e. excluding the signal peptide) was amplified using the 3' end clone (1A6) as the template with the N-terminal primer, NT1 (5' […] 3', Seq. I.D. No. 9) containing a 5' Nhe1 site, and a C-terminal primer, CT1 (5' […] 3', Seq. I.D. No. 10) containing a Xho 1 site. The resulting 1.5 kb DNA fragment was ligated into Bluescript II KS by T/A cloning as described above. The structure of the junctions of this construct was confirmed by sequencing and it was then inserted as a Nhe1/Xho1 fragment into expression vector pET21a (Novagen). Because, the Nhe1 site was used to introduce the cDNA into the pET vector, three non-CBG amino acids (Met, Ala, Ser) were added to the N-terminus of the expressed protein. To avoid the expression of the vector His-tag at the 3' end, the native stop codon of CBG was included. The expressed protein was thus identical in sequence to the mature CBG expressed in planta, except for the additional tripeptide at the N-terminus. Following transformation into E.coli strain DH5α and verification of the plasmid integrity by restriction digestion, it was introduced into the expression host BL21 (DE3).
To express CBG, the bacteria were grown to log phase (A600 =0.6-0.9) followed by an additional 2-3 h incubation at 29-37° C. in the presence or absence of 0.4-1 mM IPTG. The expressed CBG in the soluble protein fraction was purified by preparative Q-Sepharose chromatography followed by QMA-Memsep (Millipore) chromatography.
as §1
Soluble proteins and insoluble proteins (inclusion bodies) prepared from induced and uninduced bacterial cells were assayed for coniferin hydrolysis activity by the method described above. […] The activity in this fraction could be increased up to 2-fold by increasing the IPTG concentration from 0.4 -1.0 mM, and by reducing the growing temperature from 37° C. to 29° C. […] This protein was purified by anion exchange chromatography using coniferin as the substrate for monitoring β-glucosidase activity. The purified enzyme often migrated as a doublet on nondenaturing gels. […] The latter would result in the synthesis of a polypeptide that is truncated at the N-terminus, as opposed to the full-length polypeptide initiated by ribosome binding to the standard ribosome binding site in the vector.

O=[N+]([O-])c1ccccc1O[C@@H]1O[C@H](CO)[C@@H](O)[C@H](O)[C@H]1O [2-nitrophenyl-β-glucoside, 2-nitrophenyl β-glucoside]
Relative activity, Native CBG [1]: 51% | Relative activity, E. coli CBG [2]: 50%

Cc1cc(=O)oc2cc(O[C@@H]3O[C@H](CO)[C@@H](O)[C@H](O)[C@H]3O)ccc12 [4-methyl umbelliferyl-β-glucoside, 4-methylumbelliferyl β-glucoside]
Relative activity, Native CBG [1]: 18% | Relative activity, E. coli CBG [2]: 20%

O=[N+]([O-])c1ccc(O[C@@H]2O[C@H](CO)[C@@H](O)[C@H](O)[C@H]2O)cc1 [4-nitrophenyl-β-glucoside, 4-nitrophenyl β-glucoside]
Relative activity, Native CBG [1]: 30% | Relative activity, E. coli CBG [2]: 35%

COc1cc(/C=C/CO)ccc1O[C@@H]1O[C@H](CO)[C@@H](O)[C@H](O)[C@H]1O [coniferin]
Relative activity, Native CBG [1]: 100% | Relative activity, E. coli CBG [2]: 100%

COc1cc(/C=C/CO)cc(OC)c1O[C@@H]1O[C@H](CO)[C@@H](O)[C@H](O)[C@H]1O [syringin]
Relative activity, Native CBG [1]: 51% | Relative activity, E. coli CBG [2]: 65%
